A word on the pIC50: it is the negative decadic logarithm of the IC50, by convention in mol/L.

pIC50: −log10 of the molar value.

In this experiment the target is T1, PARP1 (Homo sapiens, UniProt P09874).
T1 construct: purchased BPS Bioscience
T1 sequence (P09874 whole entry): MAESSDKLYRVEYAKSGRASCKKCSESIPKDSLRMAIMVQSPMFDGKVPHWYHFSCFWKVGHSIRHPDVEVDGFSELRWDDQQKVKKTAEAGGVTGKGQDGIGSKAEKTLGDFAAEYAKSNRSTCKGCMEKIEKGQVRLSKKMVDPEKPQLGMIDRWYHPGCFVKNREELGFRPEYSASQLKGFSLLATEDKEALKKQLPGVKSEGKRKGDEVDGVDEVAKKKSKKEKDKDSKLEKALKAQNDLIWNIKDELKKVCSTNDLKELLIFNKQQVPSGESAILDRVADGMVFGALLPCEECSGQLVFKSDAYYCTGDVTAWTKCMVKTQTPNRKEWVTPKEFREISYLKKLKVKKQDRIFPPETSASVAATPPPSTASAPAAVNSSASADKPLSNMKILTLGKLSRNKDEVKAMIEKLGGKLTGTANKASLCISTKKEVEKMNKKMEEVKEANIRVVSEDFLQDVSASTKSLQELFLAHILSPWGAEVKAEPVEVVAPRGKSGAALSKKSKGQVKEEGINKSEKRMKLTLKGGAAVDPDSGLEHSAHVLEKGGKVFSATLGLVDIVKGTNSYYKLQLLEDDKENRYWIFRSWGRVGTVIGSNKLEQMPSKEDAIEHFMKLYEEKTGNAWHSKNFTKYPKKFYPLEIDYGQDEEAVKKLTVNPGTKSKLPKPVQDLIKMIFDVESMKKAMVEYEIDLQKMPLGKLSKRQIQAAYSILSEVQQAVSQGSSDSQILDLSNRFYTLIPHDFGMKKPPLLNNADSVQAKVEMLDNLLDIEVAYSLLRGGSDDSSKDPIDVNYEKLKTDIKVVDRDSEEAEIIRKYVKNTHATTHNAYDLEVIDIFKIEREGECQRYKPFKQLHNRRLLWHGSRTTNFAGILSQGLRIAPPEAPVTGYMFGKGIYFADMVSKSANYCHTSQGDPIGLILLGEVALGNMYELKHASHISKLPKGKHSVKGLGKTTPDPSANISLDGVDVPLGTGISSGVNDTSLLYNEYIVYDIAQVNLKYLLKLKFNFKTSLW
The experiment can be described thus: PARP1 Biochemical Assay (BPS Bioscience kit, chemiluminescence). To be noted: histone-coated plate, biotinilated NAD+, 25° C. for 60 min, luminescence, read-out: PARP 1 inhibition IC50. How it is done:
The assay was performed using BPS Bioscience kit. The 96-well strip plate was coated with 50 μl of histone mixture and incubated at 4° C. overnight. Next day the wells were blocked by adding 100 μl of blocking buffer. The plate was washed and 25 μl of appropriate concentration of PARP1 (25-75 ng/well) was added in all the Test and Positive control wells. In Negative control wells enzyme was replaced with 25 μl of water. To it 5 μl each of 10×PARP assay buffer and activated DNA was added in all the wells (Test, Positive and Negative control wells). 10× concentration of test compounds were prepared and 5 μl test compounds were added respective wells. Reaction volume was made up to 45 μl by adding water to all the wells. Finally, 5 μl of 10×PARP assay mixture containing biotinilated NAD^+ was added in each well and the plate was incubated at ambient temperature (25° C.) for 60 min. After washing the plate 50 μl of Streptavidin-HRP was added in each well and incubated the plate at RT for 30 min. The plate was washed and the luminescence was read in PHERAStar plate reader after adding 100 μl of chemiluminescent substrate.
PARP inhibition was calculated using the following formula: % PARP inhibition=100−[(RLU test compound treated sample−RLU negative control)/(RLU Positive control−RLU negative control)×100]
IC50 values were calculated by plotting % inhibition against the respective concentrations of test compounds using GraphPad Prism 5.
On to `O=c1[nH]c(CCCN2CCN(c3ccc(F)cc3)CC2)nc2c1CCCC21CC1` [Compound 1, 2′-(3-(4-(4-fluorophenyl)piperazin-1-yl)propyl)-6′,7′-dihydro-3′H-spiro[cyclopropane-1,8′-quinazolin]-4′(5′H)-one], for which the pIC50 was 6.30 to 9.00. As for `O=c1[nH]c(CCCN2CCN(c3ccc(Cl)cc3)CC2)nc2c1CCCC21CC1` [Compound 2, 2′-(3-(4-(4-chlorophenyl)piperazin-1-yl)propyl)-6′,7′-dihydro-3′H-spiro[cyclopropane-1,8′-quinazolin]-4′(5′H)-one], the figure is 6.30 to 9.00.

As for `O=c1[nH]c(CCCN2CC=C(c3ccccc3)CC2)nc2c1CCCC21CC1` [Compound 3, 2′-(3-(4-phenyl-5,6-dihydropyridin-1(2H)-yl)propyl)-6′,7′-dihydro-3′H-spiro[cyclopropane-1,8′-quinazolin]-4′(5′H)-one], the pIC50 was 6.30 to 9.00.

As to `O=c1[nH]c(CCCN2CCN(c3ccc(F)cc3)CC2)nc2c1CC1(CC2)CC1` [Compound 5, 2′-(3-(4-(4-fluorophenyl)piperazin-1-yl)propyl)-7′,8′-dihydro-3′H-spiro[cyclopropane-1,6′-quinazolin]-4′(5′H)-one], the pIC50 is 6.30 to 9.00. As for `O=c1[nH]c(CCCN2CCN(c3ccc(Cl)cc3)CC2)nc2c1CC1(CC2)CC1` [Compound 6, 2′-(3-(4-(4-chlorophenyl)piperazin-1-yl)propyl)-7′,8′-dihydro-3′H-spiro[cyclopropane-1,6′-quinazolin]-4′(5′H)-one], the figure is 6.30 to 9.00. For the molecule `O=c1[nH]c(CCCN2C3CCC2CN(c2ccc(F)cc2)C3)nc2c1CC1(CC2)CC1` [Compound 7, 2′-(3-(3-(4-fluorophenyl)-3,8-diazabicyclo[3.2.1]octan-8-yl)propyl)-7′,8′-dihydro-3′H-spiro[cyclopropane-1,6′-quinazolin]-4′(5′H)-one], the pIC50 is 6.30 to 9.00. Regarding `O=c1[nH]c(CCCN2CC3CCC(C2)N3c2ccc(F)cc2)nc2c1CC1(CC2)CC1` [Compound 8, 2′-(3-(8-(4-fluorophenyl)-3,8-diazabicyclo[3.2.1]octan-3-yl)propyl)-7′,8′-dihydro-3′H-spiro[cyclopropane-1,6′-quinazolin]-4′(5′H)-one], the pIC50 was 3.30 to 5.30.

Take `O=c1[nH]c(CCCN2CC=C(c3ccc(F)cc3)CC2)nc2c1CC1(CC2)CC1` [Compound 9, 2′-(3-(4-(4-fluorophenyl)-5,6-dihydropyridin-1(2H)-yl)propyl)-7′,8′-dihydro-3′H-spiro[cyclopropane-1,6′-quinazolin]-4′(5′H)-one]: the pIC50 is 6.30 to 9.00. On to `O=c1[nH]c(CCCN2CCN(c3ccc(Cl)c(Cl)c3)CC2)nc2c1CC1(CC2)CC1` [Compound 10, 2′-(3-(4-(3,4-dichlorophenyl)piperazin-1-yl)propyl)-7′,8′-dihydro-3′H-spiro[cyclopropane-1,6′-quinazolin]-4′(5′H)-one], for which the pIC50 was 5.30 to 6.30. In the case of `O=c1[nH]c(CCCN2CC3CC2CN3c2ccc(F)cc2)nc2c1CC1(CC2)CC1` (centres unmarked) [Compound 11, 2′-(3-(5-(4-fluorophenyl)-2,5-diazabicyclo[2.2.1]heptan-2-yl)propyl)-7′,8′-dihydro-3′H-spiro[cyclopropane-1,6′-quinazolin]-4′(5′H)-one], the pIC50 was 5.30 to 6.30. In the case of `O=c1[nH]c(CCCN2CCN(c3ccccc3)CC2)nc2c1CC1(CC2)CC1` [Compound 13, 2′-(3-(4-phenylpiperazin-1-yl)propyl)-7′,8′-dihydro-3′H-spiro[cyclopropane-1,6′-quinazolin]-4′(5′H)-one], the pIC50 was 5.30 to 6.30. As for `O=c1[nH]c(CCCN2CCN(c3ccccc3Cl)CC2)nc2c1CC1(CC2)CC1` [Compound 14, 2′-(3-(4-(2-chlorophenyl)piperazin-1-yl)propyl)-7′,8′-dihydro-3′H-spiro[cyclopropane-1,6′-quinazolin]-4′(5′H)-one], the figure is 6.30 to 9.00; as for `O=c1[nH]c(CCCN2CCN(c3ccc(F)cc3)CC2)nc2c1CCC1(CC1)C2` [Compound 15, 2′-(3-(4-(4-fluorophenyl)piperazin-1-yl)propyl)-5′,6′-dihydro-3′H-spiro[cyclopropane-1,7′-quinazolin]-4′(8′H)-one], 3.30 to 5.30; as for `O=c1[nH]c(CCCN2CC=C(c3ccc(F)cc3)CC2)nc2c1CCC1(CC1)C2` [Compound 16, 2′-(3-(4-(4-fluorophenyl)-5,6-dihydropyridin-1(2H)-yl)propyl)-5′,6′-dihydro-3′H-spiro[cyclopropane-1,7′-quinazolin]-4′(8′H)-one], 3.30 to 5.30.

`O=c1[nH]c(CCCN2CC=C(c3ccccc3)CC2)nc2c1CCC1(CC1)C2` [Compound 17, 2′-(3-(4-phenyl-5,6-dihydropyridin-1(2H)-yl)propyl)-5′,6′-dihydro-3′H-spiro[cyclopropane-1,7′-quinazolin]-4′(8′H)-one]: the pIC50 is 3.30 to 5.30. With `O=c1[nH]c(CCCN2CCN(c3cccc(Cl)c3)CC2)nc2c1CC1(CC2)CC1` [Compound 18, 2′-(3-(4-(3-chlorophenyl)piperazin-1-yl)propyl)-7′,8′-dihydro-3′H-spiro[cyclopropane-1,6′-quinazolin]-4′(5′H)-one], the negative-log IC50 (pIC50) is 3.30 to 5.30. As for `O=c1[nH]c(CCCN2CCC(c3ccccc3)CC2)nc2c1CC1(CC2)CC1` [Compound 19, 2′-(3-(4-phenylpiperidin-1-yl)propyl)-7′,8′-dihydro-3′H-spiro[cyclopropane-1,6′-quinazolin]-4′(5′H)-one], the figure is 6.30 to 9.00; as for `O=c1[nH]c(CCCN2CCN(c3ccccn3)CC2)nc2c1CC1(CC2)CC1` [Compound 20, 2′-(3-(4-(pyridin-2-yl)piperazin-1-yl)propyl)-7′,8′-dihydro-3′H-spiro[cyclopropane-1,6′-quinazolin]-4′(5′H)-one], 3.30 to 5.30; as for `CC(CCc1nc2c(c(=O)[nH]1)CC1(CC2)CC1)N1CCN(c2ccc(F)cc2)CC1` (centres unmarked) [Compound 21, 2′-(3-(4-(4-fluorophenyl)piperazin-1-yl)butyl)-7′,8′-dihydro-3′H-spiro[cyclopropane-1,6′-quinazolin]-4′(5′H)-one], 6.30 to 9.00. To `O=c1[nH]c(CCCN2CCN(c3cccc(C(F)(F)F)c3)CC2)nc2c1CC1(CC2)CC1` [Compound 22, 2′-(3-(4-(3-(trifluoromethyl)phenyl)piperazin-1-yl)propyl)-7′,8′-dihydro-3′H-spiro[cyclopropane-1,6′-quinazolin]-4′(5′H)-one] belongs 3.30 to 5.30.

Turning to `Cc1cccc(N2CCN(CCCc3nc4c(c(=O)[nH]3)CC3(CC4)CC3)CC2)c1` [Compound 23, 2′-(3-(4-(m-tolyl)piperazin-1-yl)propyl)-7′,8′-dihydro-3′H-spiro[cyclopropane-1,6′-quinazolin]-4′(5′H)-one], the pIC50 is 3.30 to 5.30. As for `O=c1[nH]c(CCCN2CCN(c3ccc(F)cc3)CC2)nc2c1CC1CC1C2` (centres unmarked) [Compound 24, 2-(3-(4-(4-fluorophenyl)piperazin-1-yl)propyl)-5a,6,6a,7-tetrahydro-3H-cyclopropa[g]quinazolin-4(5H)-one], the figure is 6.30 to 9.00; as for `O=c1[nH]c(CCCN2CCN(c3ccccc3)CC2)nc2c1CC1CC1C2` (centres unmarked) [Compound 25, 2-(3-(4-phenylpiperazin-1-yl)propyl)-5a,6,6a,7-tetrahydro-3H-cyclopropa[g]quinazolin-4(5H)-one], 5.30 to 6.30.

The values above are taken from US9359367B2, “Tetrahydroquinazolinone derivatives as PARP inhibitors” (Lupin Limited, priority 2012, dated 2016).
